According to paper PMC10818308, “Phytochemicals from Pterocarpus angolensis DC and Their Cytotoxic Activities against Breast Cancer Cells” (Plants, 2024):
Values after ≈ are worked out from the molar mass of the structure shown.

How the values were obtained:
[1] = system: triple-negative breast cancer (HCC70) cell line; assay: Resazurin cytotoxicity assay, HCC70; type: cell-based; details: for SI (Selectivity Index), IC50 of MCF-12A/IC50 of HCC70: HCC70 versus MCF-12A; for IC50: Homo sapiens; for IC50 / IC50 (µM) HCC70: HCC70 cells, 96 h treatment, resazurin
Method: (§1) The cytotoxicity of the pure compounds was evaluated using the in vitro cell culture against triple-negative breast cancer (HCC70) cell lines, hormone receptor-positive breast cancer (MCF-7), and non-tumorigenic epithelial cell lines derived from breast tissue (MCF-12A). A compound’s ability to inhibit a particular biochemical function is determined by its half-maximum inhibitory concentration (IC50). Etoposide was used as the positive control.
(§2) The cell viability after treatment with the isolated pure compounds of P. angolensis was analyzed using the resazurin assay in commercially available established cell lines purchased from the American Type Culture Collection. Triple-negative breast cancer cell line (HCC70) (estrogen receptor (ER)^−, progesterone receptor (PR), (HER-2)^−, (ATCC-CRL-2315)), hormone receptor-positive (ER^+, PR ^+, HER-2) breast cancer cell line (MCF-7) (ATCC: HTB-22), and non-tumorigenic breast epithelial cell line (MCF-12A) (ATCC: CRL-10782, a kind gift from Anna-Mart Engelbrecht, Stellenbosch University, Stellenbosch, South Africa) were maintained in culture in a 9% CO2 incubator at 37 °C. The HCC70 cell line was cultured in RPMI-1640 media (Gibco, Trenton, MI, USA) supplemented with 10% (v/v) fetal bovine serum (FBS) (BioWest, Nuaillé, France), 1% (v/v) 100 U/mL penicillin, streptomycin, and amphotericin (PSA) (Lonza, Basel, Switzerland), 1% (v/v) GlutaMAX^TM (Gibco) and 0.25% (v/v) sodium bicarbonate (Gibco). The MCF-7 cell line cell was cultured in Dulbecco’s Modified Eagles Medium (DMEM) (Gibco) supplemented with 10% (v/v) FBS, 1% (v/v) PSA and 1% (v/v) GlutaMAX^TM. The MCF-12A cell line was cultured in DMEM/Ham’s F-12 (BioWest) supplemented with 10% (v/v) FBS, 1% (v/v) PSA, 20 ng/mL human epidermal growth factor (Sigma, St. Louis, MO, USA), 100 ng/mL cholera toxin (Sigma), 500 ng/mL hydrocortisone (Abcam, Cambridge, UK) and 10 μg/mL insulin (Novo Nordisk, Bagsværd, Denmark). All cells were seeded into 96-well plates at a density of 5000 cells per well and allowed to adhere for the night in a 9% CO2 incubator at 37 °C. The cells were subsequently treated for 96 h at 37 °C in an incubator with 9 percent CO2 with the isolated compounds with […] at concentrations ranging from 15.63 to 500.00 μM or with 0.2% (v/v) DMSO (Sigma) as a vehicle control. Thereafter, 0.54 nM of resazurin (Glentham Life Sciences, Corsham, UK) solution was added, and cells were then cultured for two to four hours at 37 °C in an incubator with 9% CO2. A Spectramax spectrophotometer (Molecular Devices, Sunnyvale, CA, USA) was used to measure the fluorescence of the resulting solutions. The excitation and emission wavelengths were set at […], respectively. The experiment was repeated in technical triplicate, and the data were analyzed using GraphPad Prism (Boston, MA, USA). […] The selectivity index (SI) value of each compound was calculated as the ratio of IC50 of MCF-12A/IC50 of HCC70 or MFC-7 of the same compound, where an SI > 1 implies toxicity that is preferentially toxic to cancer cells compared to non-cancerous cells.

[2] = system: hormone receptor-positive breast cancer cell line (MCF-7); assay: Resazurin cytotoxicity assay, MCF-7; type: cell-based; details: for IC50: Homo sapiens, MCF7; for SI (Selectivity Index), IC50 of MCF-12A/IC50 of MCF-7: MCF-7 versus MCF-12A
[3] = system: non-tumorigenic breast epithelial cell line (MCF-12A); assay: Resazurin cytotoxicity assay, MCF-12A; type: cell-based; details: Homo sapiens, MCF-12A cells, 96 h treatment, read-out: IC50 (µM) MCF12A
Method: as §1, §2

[4] = system: oral epithelial carcinoma cells (KB/C152); set-up: method as in PMID 32334461; details: cited from earlier work
[5] = system: HeLa cervical cancer cells; set-up: method as in doi:10.15408/jkv.v1i1.20068; details: read-out: IC50 cytotoxicity; cited from earlier work
Staphylococcus typhi = system: Staphylococcus typhi; set-up: method as in PMID 19583913; details: cited from earlier work
Kocuria kristinae = system: Kocuria kristinae; set-up: method as in PMID 19583913; details: cited from earlier work
[6] = system: human ovarian cancer cell line, SKOV3; set-up: method as in PMID 32095097; details: SKOV3 cells; read-out: IC50 cytotoxicity; cited from earlier work
[7] = system: human endometrial carcinoma cell line HEC-1A; set-up: method as in PMID 32095097; details: HEC-1A cells; read-out: IC50 cytotoxicity; cited from earlier work
[8] = system: glioblastoma U87MG.EGFR cells, CEM/ADR5000 leukemia cells; set-up: method as in earlier work; details: read-out: IC50 cytotoxicity; cited from earlier work
CCRF-CEM cells = system: CCRF-CEM cells; set-up: method as in earlier work; details: read-out: IC50 cytotoxicity; cited from earlier work
MCF-7 = system: MCF-7; set-up: method as in PMID 28619518; details: 48 h; read-out: activity against MCF-7; cited from earlier work
CYP3A4 = system: CYP3A4; set-up: method as in PMID 30122094; details: read-out: inhibition of CYP3A4; cited from earlier work
[9] = system: 2E1 human liver microsomal; set-up: method as in PMID 30122094; details: read-out: inhibition of 2E1; cited from earlier work
insect-derived sf9 = system: insect-derived sf9; set-up: method as in PMID 19127726; details: cited from earlier work
Lactuca sativa seeds = system: Lactuca sativa seeds; set-up: method as in PMID 19127726; details: cited from earlier work
Staphylococcus aureus = system: Staphylococcus aureus; set-up: method as in PMID 19583913; details: cited from earlier work
[10] = system: Acinetobacter calcaoceuticus; set-up: method as in PMID 19583913; details: cited from earlier work
[11] = MCF-7 cells, 96 h treatment, resazurin

Row | Compound | SI (Selectivity Index), IC50 of MCF-12A/IC50 of HCC70 [1] | IC50 [1] [µM] | IC50 [2, 11] [µM] | SI (Selectivity Index), IC50 of MCF-12A/IC50 of MCF-7 [2] | IC50 [3] [µM] | further results
1 | CC[C@H](/C=C/[C@@H](C)[C@H]1CC[C@H]2[C@@H]3CC=C4C[C@@H](O)CC[C@]4(C)[C@H]3CC[C@]12C)C(C)C [Compound 5, Stigmasta-5-22-dien-3-ol] | 0.40 | 109 | 227 | 0.19 | 44.1 | IC50 cytotoxicity [4]: 81.18 µg/mL (≈ 197 µM); IC50 [5]: 26.4 µM
2 | hexamer of epicatechin |  |  |  |  |  | minimum inhibition concentration (MIC) (Staphylococcus typhi): 25 µg/mL; minimum inhibition concentration (MIC) (Kocuria kristinae): 25 µg/mL
3 | CCCCCCCCCCCCCCOC(=O)/C=C/c1ccc(O)c(OC)c1 [Compound 8, tetradecyl (E)-ferulate] | 0.05 | 128 | 223 | 0.03 | 6.95 | melting point: 68 to 70 °C
4 | CC(=O)OC1CCC2(C)C(CCC3(C)C2CC=C2C4CC(C)(C)CCC4(C(=O)O)CCC23C)C1(C)C (stereo not drawn) [Compound 7, (3β)-3-acetoxyolean-12-en-28-oic acid] | 0.97 | 147 | 83.1 | 1.72 | 143 | IC50 [6]: 8.3 µM; IC50 [7]: 0.8 µM
5 | CC1=C(O)C(=O)CC2[C@]3(C)CC[C@@]4(C)C5CC(C)(C)CC[C@]5(C)CC[C@]4(C)C3CC[C@]12C (some centres unmarked) [Compound 3, 3-hydroxyfriedel-3-en-2-one] | 0.93 | 146 | 101 | 1.35 | 136 | melting point: 265 to 268 °C
6 | COc1cc([C@@H]2c3cc4c(cc3[C@@H](O[C@@H]3O[C@@H]5CO[C@@H](C)O[C@H]5[C@H](O)[C@H]3O)[C@H]3COC(=O)[C@H]23)OCO4)cc(OC)c1O [Etoposide, reference compound] |  | 44.8 |  |  | 10.9 | 
7 | C=C(C)[C@@H]1CC[C@]2(C)CC[C@]3(C)[C@H](CC[C@@H]4[C@@]5(C)CC[C@H](O)C(C)(C)[C@@H]5CC[C@]43C)[C@@H]12 [Compound 4, lup-20(29)-en-3-ol] |  |  | 149 | 0.25 | 36.6 | IC50 (µM) HCC70 [1]: Non-Toxic; IC50 [8]: 13.6 to 69.4 µM; IC50 (CCRF-CEM cells): 0.02 to 66.8 µM
8 | C[C@H]1C(=O)CC[C@@H]2[C@]1(C)CC[C@H]1[C@@]2(C)CC[C@@]2(C)[C@@H]3CC(C)(C)CC[C@]3(C)CC[C@]12C [Compound 1, friedelan-3-one] |  |  |  |  | 43.9 | IC50 (µM) HCC70 [1]: Non-Toxic; IC50 (µM) MCF7 [2, 11]: Non-Toxic; IC50 (MCF-7): 1.2 µM; IC50 (CYP3A4): 10.8 µM; IC50 [9]: 22.5 µM
9 | C[C@H]1C(O)C(=O)CC2[C@]3(C)CC[C@@]4(C)C5CC(C)(C)CC[C@]5(C)CC[C@]4(C)C3CC[C@@]21C (stereo partly drawn) [Compound 2, 3α-hydroxyfriedel-2-one] |  |  | 157 | 0.53 | 84.2 | IC50 (µM) HCC70 [1]: Non-Toxic; cytotoxicity effect on sf9 (insect-derived sf9): 8.32 µg/mL; phytotoxicity against germination (Lactuca sativa seeds): no phytotoxicity
10 | epicatechin-3-O-gallate |  |  |  |  |  | minimum inhibition concentration (MIC) (Staphylococcus aureus): 50 µg/mL; minimum inhibition concentration (MIC) [10]: 50 µg/mL
11 | COc1ccc(C(C)C(=O)c2ccc(OC)cc2O)cc1 (centres unmarked) [Compound 6, 4-O-methylangolensis] | 1.32 | 111 | 77.5 | 1.91 | 148 | melting point: 70 to 71 °C
